Results as given in article PMC10052609, “Cholinesterase Inhibitors from an Endophytic Fungus Aspergillus niveus Fv-er401: Metabolomics, Isolation and Molecular Docking” (Molecules, 2023).
Several values for one entry are separate records, joined by “and”; a condition that tells them apart may be missing. Equal entries are not always repeated. Where two headings read alike, the source gives them in different places.

How the values were obtained:
[1] = target: AChE (Homo sapiens, UniProt P22303); test: Acetylcholinesterase inhibitory activity (Ellman's method); type: biochemical; conditions: acetylthiocholine substrate, 25 °C, read at 405 nm
Sequence of AChE (P22303 32-614): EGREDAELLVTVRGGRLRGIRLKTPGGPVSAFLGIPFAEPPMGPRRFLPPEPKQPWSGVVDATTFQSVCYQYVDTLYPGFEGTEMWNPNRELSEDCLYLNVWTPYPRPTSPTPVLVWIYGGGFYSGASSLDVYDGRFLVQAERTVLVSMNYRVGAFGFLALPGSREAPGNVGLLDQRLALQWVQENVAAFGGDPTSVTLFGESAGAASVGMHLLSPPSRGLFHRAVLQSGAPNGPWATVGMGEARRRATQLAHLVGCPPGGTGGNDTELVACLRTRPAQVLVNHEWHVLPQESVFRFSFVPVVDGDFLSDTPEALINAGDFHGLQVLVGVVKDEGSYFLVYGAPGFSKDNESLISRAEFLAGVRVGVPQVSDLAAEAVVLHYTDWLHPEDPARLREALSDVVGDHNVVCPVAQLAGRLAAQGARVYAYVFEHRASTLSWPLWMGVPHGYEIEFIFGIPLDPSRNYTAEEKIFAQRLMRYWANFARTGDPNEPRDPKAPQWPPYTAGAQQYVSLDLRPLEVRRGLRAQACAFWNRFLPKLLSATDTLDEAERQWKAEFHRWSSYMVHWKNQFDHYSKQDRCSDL
Procedure: (§1) In total, 170 μL of Tris–HCl buffer (200 mM, pH 7.5) was added, then 20 μL of the tested compounds at different concentrations ([…]), and finally 20 μL of the enzyme solution (0.1 U mL1). […] In BChE and AChE assays, butyrylthiocholine iodide and acetylthiocholine were used as substrates, and DTNB was used as an indicator. MeOH was used to dissolve the tested samples. […] Blank tests were performed by replacing the enzyme (20 μL) with buffer and recording the absorbances.
(§2) Percentage inhibition was calculated as follows: %Inhibition=Reading B−Reading A/Reading B×100

[2] = target: BuChE (Homo sapiens, UniProt P06276); test: Butyrylcholinesterase inhibitory activity (Ellman's method); type: biochemical; conditions: butyrylthiocholine iodide substrate, 25 °C, read at 405 nm
Sequence of BuChE (P06276 29-602): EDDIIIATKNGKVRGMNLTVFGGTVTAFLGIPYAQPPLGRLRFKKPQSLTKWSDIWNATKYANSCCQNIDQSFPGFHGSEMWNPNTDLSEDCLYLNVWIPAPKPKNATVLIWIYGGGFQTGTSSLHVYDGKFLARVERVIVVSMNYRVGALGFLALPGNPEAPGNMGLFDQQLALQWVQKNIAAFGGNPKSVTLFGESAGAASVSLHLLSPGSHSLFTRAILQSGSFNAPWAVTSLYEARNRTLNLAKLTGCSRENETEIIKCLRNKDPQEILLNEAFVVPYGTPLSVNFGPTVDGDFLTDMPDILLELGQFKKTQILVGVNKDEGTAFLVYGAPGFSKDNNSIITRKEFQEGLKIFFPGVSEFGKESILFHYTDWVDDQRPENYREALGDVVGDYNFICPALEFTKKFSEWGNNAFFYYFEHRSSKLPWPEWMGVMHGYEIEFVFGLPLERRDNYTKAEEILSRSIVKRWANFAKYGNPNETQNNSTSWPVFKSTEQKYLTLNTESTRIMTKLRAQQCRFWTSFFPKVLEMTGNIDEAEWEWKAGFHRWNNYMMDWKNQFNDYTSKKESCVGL
Procedure: as §1, §2

[3] = system: NCI-H460; conditions: NCI-H460 cell line; read-out: Cytotoxic activity IC50; cited from earlier work
[4] = system: MCF-7; conditions: MCF-7 cell line; read-out: Cytotoxic activity IC50; cited from earlier work
[5] = system: SF-268; conditions: SF-268 cell line; read-out: Cytotoxic activity IC50; cited from earlier work
[6] = system: MIA Pa Ca-2; conditions: MIA Pa Ca-2 cell line; read-out: Cytotoxic activity IC50; cited from earlier work
[7] = system: glutamate-induced excitotoxicity; conditions: low doses; cited from earlier work

C=CC(C)(C)c1[nH]c2ccccc2c1C1=C(O)C(=O)C(c2c[nH]c3ccccc23)=C(CC=C(C)C)C1=O [Terrequinone A]
IC50 ([1]; Ellman's method, read-out: Acetylcholine Esterase IC50 (converted)): 22.6 µM
IC50 ([2]; Ellman's method, read-out: Butyryl Choline Esterase IC50 (converted)): 31.9 µM
IC50 [3]: 5.6 µM
IC50 [4]: 6.8 µM
IC50 [5]: 13.9 µM
IC50 [6]: 5.4 µM

CC1=C2C(=CO[C@H](C)[C@H]2C)C(O)=C(C(=O)O)C1=O [Citrinin]
IC50 ([1]; Acetylcholine Esterase IC50, Ellman's method): 20.2 µM
IC50 ([2]; Butyryl Choline Esterase IC50, Ellman's method): 32 µM and 30.1 µM
Neuroprotective activity against glutamate-induced excitotoxicity [7]: potential neuroprotective activity
